# Earlier results as cited in patent publication US20220016116A1, “DETERMINING DRUG COMBINATIONS, SYNERGISTIC DRUG COMBINATION AND USE THEREOF IN PANCREATIC CANCER TREATMENT” (Innoplexus AG, priority 2020, published 2022).
# Key:
# [1] = target: human epidermal growth factor receptor (EGFR) family (EGFR/HER1, HER2, and HER4) tyrosine kinases; conditions: read-out: IC50 (affinity)
# [2] = independent of drug concentrations from 250 ng/mL to 1000 ng/mL
# [3] = 45 mg orally once daily, CV 35%
compound,measurement,setting,value
"COc1cc2ncnc(Nc3ccc(F)c(Cl)c3)c2cc1NC(=O)/C=C/CN1CCCCC1 [Dacomitinib, (2E)-N-16-4-(piperidin-1-yl) but-2-enamide]",cell migration and invasion,"PDAC cell; through inhibition of EMT markers ZEB1, Snail and N-cadherin",attenuated cell migration and invasion
same,PDAC cell proliferation,PDAC cell; via inhibition of FOXM1 and its targets Aurora kinase B and cyclin B1,diminishes PDAC cell proliferation
same,apoptosis and radio-sensitivity,PDAC cell; via inhibition of anti-apoptotic proteins survivin and MCL1,induces apoptosis and potentiated radio-sensitivity
same,IC50,[1],6 nM
same,bound to plasma proteins,[2],98%
same,"Cmax, geometric mean",[3],108 ng/mL
same,area under the concentration-time curve (AUC),[3],2213 ng·h/mL
same,volume of distribution,CV 18%,1889 L
same,mean absolute bioavailability,after oral administration,80%
same,time to reach maximum concentration,oral,approximately 6.0 h
